Measured values taken from ChEMBL document CHEMBL1154926, “Cyanolide A, a glycosidic macrolide with potent Molluscicidal activity from the Papua New Guinea cyanobacterium Lyngbya bouillonii” (J Nat Prod, 2010).

Legend:
Biomphalaria glabrata = test: Molluscicidal activity against Biomphalaria glabrata after 24 hrs; type: functional
[1] = Toxicity in brine shrimp; type: organism-based; conditions: artemia, in vivo
NCI-H460 = test: Cytotoxicity against human H460 cells at 35 uM; type: functional, cell-based
N2a = test: Cytotoxicity against mouse Neuro2a cells at 35 uM; type: functional, cell-based

With CC[C@@H]1C[C@@H]2C[C@H](O[C@@H]3OC[C@@H](OC)[C@H](OC)[C@H]3OC)C(C)(C)[C@H](CC(=O)O[C@H](CC)C[C@@H]3C[C@H](O[C@@H]4OC[C@@H](OC)[C@H](OC)[C@H]4OC)C(C)(C)[C@H](CC(=O)O1)O3)O2 [CYANOLIDE A] the LC50 (Biomphalaria glabrata) was 1.2 µM, the LC50 [1] was 10.8 µM and the Activity (NCI-H460) was “Not toxic”. The Activity (N2a) was “Not toxic”.
